Assays:
OGFOD1 = molecular target: T1, OGFOD1 (Homo sapiens, UniProt Q8N543); assay: 2OG displacement from OGFOD1 by CPMG-edited 1H NMR; format: binding; conditions: 10 µM 2OG, 10 µM OGFOD1, 70 µM inhibitor
T1 sequence (Q8N543 1-542): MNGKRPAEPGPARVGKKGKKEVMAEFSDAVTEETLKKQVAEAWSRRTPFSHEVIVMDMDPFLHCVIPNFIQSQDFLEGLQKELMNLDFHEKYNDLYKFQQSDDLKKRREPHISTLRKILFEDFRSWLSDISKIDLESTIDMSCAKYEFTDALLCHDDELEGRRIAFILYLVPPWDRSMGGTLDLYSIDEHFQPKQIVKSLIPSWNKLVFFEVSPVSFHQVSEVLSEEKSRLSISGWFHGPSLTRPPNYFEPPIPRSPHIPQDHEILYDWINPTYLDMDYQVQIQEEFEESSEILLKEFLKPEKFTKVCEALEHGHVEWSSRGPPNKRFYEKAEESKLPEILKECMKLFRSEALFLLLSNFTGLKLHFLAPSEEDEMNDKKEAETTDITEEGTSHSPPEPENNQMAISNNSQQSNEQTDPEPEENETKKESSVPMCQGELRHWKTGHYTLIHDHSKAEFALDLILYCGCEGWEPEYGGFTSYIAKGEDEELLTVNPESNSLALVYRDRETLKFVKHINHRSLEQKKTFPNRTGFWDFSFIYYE
Procedure: total echo time of 40 ms, a relaxation delay of 2 s, with 256 scans. Water suppression was achieved by presaturation. Samples contained 30 µM apo-PHD2181-426 or OGFOD1, supplemented with 60 µM Zn(II), 30 µM of inhibitor, all in 50 mM Tris-d11, pH 7.5, 10 % D2O, […]
wLOGSY Binding Experiments: For water-ligand observed gradient spectroscopy (wLOGSY) analyses, typical experimental parameters were the following: mixing time, 1 s; relaxation delay, 2 s; number of transients, 512. Solvent excitation was achieved using a 16-ms 180° selective rectangular shape pulse with 1,000 points (Squa100.1000) set at the H2O frequency. […]
Competition Experiments by 2OG Displacement: 2OG displacement assays[12] were performed using CPMG-edited 1H spectra. […] The 2OG methylene resonance at 2.35 ppm was monitored. […]
HeLa cells were cultured in DMEM media supplemented with 10 % fetal bovine serum, 4 mM L-glutamine, 100 U/mL penicillin, and 100 µg/mL streptomycin. […] Cell extracts were analyzed by SDS-PAGE, electroblotted onto PVDF membranes (Millipore) and probed with anti-HIF-1α antibody (clone 54, BD Transduction Laboratories) at 1:1000 dilution for 1 h at room temperature. […] Target proteins were detected with SuperSignal Chemiluminescent […]
Figure S15. Single-concentration qualitative 2OG displacement as monitored by CPMG-edited 1H NMR spectroscopy. […]

Ofd1 = molecular target: T2, Ofd1 (Schizosaccharomyces pombe, UniProt Q11120); assay: Ofd1 inhibition assay (Figure S12); format: biochemical, yeast; conditions: Ofd1 1 µM (Figure S12)
T2 sequence (Q11120 1-515): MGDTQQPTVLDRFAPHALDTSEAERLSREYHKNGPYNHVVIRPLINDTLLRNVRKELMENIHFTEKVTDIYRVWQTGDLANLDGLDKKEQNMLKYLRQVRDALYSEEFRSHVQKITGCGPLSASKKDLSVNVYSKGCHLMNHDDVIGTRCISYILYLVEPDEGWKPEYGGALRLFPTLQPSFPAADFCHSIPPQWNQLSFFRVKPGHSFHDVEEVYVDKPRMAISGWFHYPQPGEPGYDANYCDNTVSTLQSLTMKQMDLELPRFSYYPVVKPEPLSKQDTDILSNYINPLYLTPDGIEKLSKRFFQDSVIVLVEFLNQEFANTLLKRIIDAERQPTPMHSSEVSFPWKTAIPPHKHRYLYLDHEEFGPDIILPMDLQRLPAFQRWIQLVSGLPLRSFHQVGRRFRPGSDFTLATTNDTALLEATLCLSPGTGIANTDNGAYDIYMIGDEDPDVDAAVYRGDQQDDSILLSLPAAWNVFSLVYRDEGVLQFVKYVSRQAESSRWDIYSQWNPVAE

| SMILES | displacement of bound 2OG from OGFOD1, in words (OGFOD1) | inhibition of Ofd1, in words (Ofd1) |
| --- | --- | --- |
| Cn1c(O)c(C(=O)CCc2cccs2)c(=O)n(C)c1=O [compound 42] | capable of displacing bound 2OG from the active site of OGFOD1 | potently inhibit |
| Cn1c(O)c(C(=O)CCc2ccccc2)c(=O)n(C)c1=O [compound 26] | capable of displacing bound 2OG from the active site of OGFOD1 | potently inhibit |
